Results as given in US10730886B2, “Compound having effect of inhibiting platelet aggregation and salt thereof, and composition for preventing or treating thrombotic diseases, containing same” (SHIN POONG PHARMACEUTICAL CO., LTD., priority 2015, dated 2020).

What was measured:
[1] = system: collagen-induced platelet aggregation, Human PRP; assay: Collagen-induced platelet aggregation in human PRP (lumi-aggregometer); assay type: cell-based; settings: collagen 2-5 μg/ml
Method: (§1) To investigate whether the candidate substance has inhibition selectivity for shear-stress-induced platelet aggregation, which is by a physical stimulus, […] experiment was conducted by activating platelets with physiological agonists—i.e., thrombin, collagen and ADP—to study the inhibitory effect of the candidate substance.
(§2) Human PRP (598.8 μl) was treated with 1.2 μl of the candidate substance per concentration (25, 100, 250 μM) and reacted at 37° C. for 3 minutes using a thermomixer. Then, PRP (495 μl) was put in the aggregometer cuvette and preincubated for 1 minute, followed by treatment with platelet aggregation-inducing reagent, thrombin (0.6-0.8 U/ml), collagen (2-5 μg/ml), or ADP (adenosine diphosphate, 15-20 μM) at the minimum concentration causing maximum aggregation. The degree of aggregation of the platelets was measured by a turbidity change using a lumi-aggregometer (Chrono-Log Co., USA). The turbidity of the PRP was considered as 0%, and the turbidity of the PPP was considered as 100%. During the measurement, the reaction mixture was continuously stirred at 1,000 rpm with a silicone-coated magnetic stir bar.

[2] = system: ADP-induced platelet aggregation, Human PRP; assay: ADP-induced platelet aggregation in human PRP (lumi-aggregometer); assay type: cell-based; settings: ADP 15-20 μM
Method: as §1, §2

[3] = system: human vascular endothelial cells (EA.hy926); assay: Cytotoxicity in EA.hy926 cell line (MTT assay); assay type: cell-based; settings: 24 hours
Method: 5-1. Evaluation of Cytotoxicity of Candidate Substances Using EA.hy926 Cell Line
Experiments were conducted to determine the cytotoxicity of candidate substances in human vascular endothelial cells (EA.hy926). EA.hy926 was passaged in DMEM (Dulbecco's […]) supplemented with 10% fetal bovine serum (FBS) at 5% CO2/37° C. The cells were cultured in a 96 well plate at 1×10^4 cells/well for 48 hours, washed twice with DMEM and then cultured for 24 hours. Candidate substances were prepared at final concentrations of 25 and 100 μM, applied to the wells at 200 μl per well and cultured for 24 hours. MTT assay was used to measure the absorbance at 570 nm after colorization in violet.

[4] = system: iron chloride (FeCl3)-induced thrombogenesis model; assay: Arterial thrombosis model, FeCl3-induced carotid artery thrombogenesis; assay type: in vivo, Sprague-Dawley rats; settings: rat, 25 mg/kg oral, FeCl3 applied 60 min after administration; occlusion time
Method: Vehicle (DMSO: Tween 80: DW=1:2:17) or candidate substance (25 mg/kg) was orally administered to overnight-fasted male Sprague-Dawley rats (250 to 300 g). 30 minutes after administration, the rats were anesthetized by intraperitoneal injection of urethane (1.25 g/kg). The anesthetized animals were restrained on the operating table, and the body temperature was maintained using a heating pad during the entire operating procedure. An incision was made around the neck of the animals to carefully expose the right carotid artery, and the adipose tissues attached to the blood vessels were carefully removed. Doppler flow probe (0.5 mm-diameter, MA0.5PSB, Transonic System Inc., USA) was fixed to the exposed carotid artery, and a doppler flow-meter (TS420, Transonic System Inc., USA) was connected thereto. 60 minutes after oral administration, a piece of Whatman No. 1 filter paper (2 mm×1 mm) soaked with 50% FeCl3 solution was attached to the underlying blood vessels to which the probe was fixed. The filter paper was removed after 10 minutes, and the change of blood flow due to thrombus formation in the carotid artery was measured for 60 minutes after the time point of removal. The occlusion time was defined as the time at which the blood flow became zero more than one minute for the first time.

[5] = system: human liver cells (HepG2); assay: Cytotoxicity in human liver cells HepG2 (WST-1); assay type: cell-based; settings: HepG2, 250 μM, 18 hours
Method: 5-3. Evaluation of Cytotoxicity of Candidate Substances Using Human Liver Cells
Experiments were conducted to evaluate cytotoxicity in human liver cells (HepG2). HepG2 cells, which are human liver carcinoma cell lines, were cultured in DMEM (Dulbecco's minimum essential medium) supplemented with 10% FBS (fetal bovine serum) and 1% Penicillin/Streptomycin at 37° C. and 5% CO2. The cells were cultured in a 48 well plate at 4×10^4 cells/well for 24 hours and then used in the experiments. The HepG2 cells were treated with the candidate substances (250 μM) for 18 hours, and then the medium was removed and WST-1 was added, followed by shading for 3 hours for reaction. After 3 hours, the supernatant was taken and absorbance was measured at 450 nm. Cell viability was calculated by comparing the absorbance measured after adding WST-1 to HepG2 cells not treated with the candidate substances. Acetaminophen (40 mM) was used as a control.

[6] = system: Human Washed Platelets (WP); assay: Shear stress-induced platelet aggregation inhibition in human washed platelets (WP); assay type: cell-based
Method: 1-2. Measurement of Platelet Aggregation Inhibitory Effect Using Human Washed Platelets (WP)
To separate human washed platelets (WP), blood was collected from the veins of healthy males using acid-citrate-dextrose (ACD) as an anticoagulant. At the time of blood collection, platelet activation was inhibited by treatment with 1 μM of prostaglandin E1 (PGE1). The collected blood was centrifuged at 150 g for 15 minutes to obtain PRP from the supernatant, which was centrifuged at 500 g for 10 minutes to obtain platelets. The platelets were suspended in and washed with a washing buffer (134 mM NaCl, 2.9 mM KCl, 1.0 mM MgCl2.6H2O, 10.0 mM HEPES, 5.0 mM dextrose, 12.0 mM NaHCO3, 0.34 mM Na2HPO4, 10% ACD, 0.3% bovine serum albumin, 1 μM PGE1, pH 7.4), and then re-centrifuged at 400 g for 10 minutes. The platelets thus obtained were suspended in the suspension buffer. The number of platelets in WP were counted using a hemacytometer. The platelets were diluted with the suspension buffer so as to include 3×10^8 platelets per 1 ml, and CaCl2 was added to give a final concentration of 2 mM and then used in the experiments. vWF was added to WP to give a final concentration of 10 μg/ml. WP was put on a cone-plate viscometer, and shear stress was applied to the WP at 37° C. for 3 minutes at a shear rate of 10,800 s^−1. In order to evaluate efficacy of candidate substances, prior to the induction of platelet aggregation, WP was treated with 10, 25, and 50 μM of candidate substances and incubated at 37° C. for 3 minutes using a thermomixer. After applying the shear stress, 20 μl of WP was fixed in 280 μl of the suspension buffer containing 0.5% glutaraldehyde. Then, the number of single platelets in the suspension was counted using a hemacytometer. The degree of inhibition by the candidate substance was calculated according to formula (1). No shear stress-applied group served as control, and only shear stress-applied group served as a positive control.

Compound: O=C(c1cc(O)ccc1O)N1CCc2sccc2C1 [Example 20, (6,7-Dihydrothieno[3,2-c]pyridin-5(4H)-yl)(2,5-dihydroxyphenyl)methanone]
- Degree of platelet aggregation (%, Mean ± SEM) ([1]; 25 μM): 82.3 ± 5.8%
- Degree of platelet aggregation (%, Mean ± SEM) ([1]; 100 μM): 81.3 ± 3.5%
- Degree of platelet aggregation (%, Mean ± SEM) ([1]; 250 μM): 87.7 ± 2.0%
- Degree of platelet aggregation (%, Mean ± SEM) ([2]; compound 25 μM): 73.0 ± 2.0%
- Degree of platelet aggregation (%, Mean ± SEM) ([2]; compound 100 μM): 69.0 ± 1.0%
- Degree of platelet aggregation (%, Mean ± SEM) ([2]; compound 250 μM): 66.5 ± 2.5%
- Cell viability (%) ([3]; EA.hy926, 25 μM): 99.7 ± 3.2%
- Cell viability (%) ([3]; EA.hy926, 100 μM): 97.7 ± 2.2%
- Time of thrombogenesis [4]: 2122 ± 265 s
- Cell vaibility (%) [5]: 87.7 ± 2.6%
- inhibited shear stress-induced platelet aggregation in WP ([6]; 10, 25, 50 μM): in a dose-dependent manner
- inhibition at 10 µM ([6]; Platelet, human WP, 10 μM, read-out: Degree of inhibition (%, Mean ± SEM)): 18 ± 1.5%
- inhibition at 25 µM ([6]; Platelet, human WP, 25 μM, read-out: Degree of inhibition (%, Mean ± SEM)): 42 ± 4.2%
- inhibition at 50 µM ([6]; Platelet, human WP, 50 μM, read-out: Degree of inhibition (%, Mean ± SEM)): 46 ± 2.1%
